Measurements published in patent publication US20230140635A1, “3-(2-(Aminoethyl)-Indol-4-ol Derivatives, Methods of Preparation Thereof, and the Use as 5-HT2 Receptor Modulators” (priority 2020, published 2023).
Where a name gives a salt, the structure may show the parent alone. Read-outs that look alike come from different tables or passages of the source.

Key:
5-HT2A [1] = molecular target: T1, 5-HT2A (Homo sapiens, UniProt P28223); assay: 5-HT2 Gq-Dissociation BRET assay; format: cell-based; parameters: expressed in transfected cells; host or cells: HEK293T; details: for Emax: read-out: % efficacy vs 5-HT@ 100%, 5-HT2A; for IC50: HEK293T cells, 1 hour at 37° C.
T1 sequence (P28223 whole entry): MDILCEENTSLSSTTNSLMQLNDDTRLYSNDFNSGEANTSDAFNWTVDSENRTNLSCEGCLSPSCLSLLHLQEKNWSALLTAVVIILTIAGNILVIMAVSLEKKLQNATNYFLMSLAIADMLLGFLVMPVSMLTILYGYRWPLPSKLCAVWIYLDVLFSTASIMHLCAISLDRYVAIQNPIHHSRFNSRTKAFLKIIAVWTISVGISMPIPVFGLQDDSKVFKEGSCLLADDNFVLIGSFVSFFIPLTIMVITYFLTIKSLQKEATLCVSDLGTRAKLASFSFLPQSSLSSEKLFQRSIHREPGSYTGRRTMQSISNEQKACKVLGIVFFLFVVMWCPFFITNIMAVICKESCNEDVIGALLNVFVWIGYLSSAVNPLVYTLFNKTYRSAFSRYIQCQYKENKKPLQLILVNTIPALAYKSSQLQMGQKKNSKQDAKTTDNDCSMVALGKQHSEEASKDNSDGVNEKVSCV

5-HT2C [2] = molecular target: T2, 5-HT2C (Homo sapiens, UniProt P28335); assay: cell-based; parameters: expressed in transfected cells; host or cells: HEK293T; details: for Emax: read-out: % efficacy vs 5-HT@ 100%, 5-HT2C
T2 sequence (P28335 33-458): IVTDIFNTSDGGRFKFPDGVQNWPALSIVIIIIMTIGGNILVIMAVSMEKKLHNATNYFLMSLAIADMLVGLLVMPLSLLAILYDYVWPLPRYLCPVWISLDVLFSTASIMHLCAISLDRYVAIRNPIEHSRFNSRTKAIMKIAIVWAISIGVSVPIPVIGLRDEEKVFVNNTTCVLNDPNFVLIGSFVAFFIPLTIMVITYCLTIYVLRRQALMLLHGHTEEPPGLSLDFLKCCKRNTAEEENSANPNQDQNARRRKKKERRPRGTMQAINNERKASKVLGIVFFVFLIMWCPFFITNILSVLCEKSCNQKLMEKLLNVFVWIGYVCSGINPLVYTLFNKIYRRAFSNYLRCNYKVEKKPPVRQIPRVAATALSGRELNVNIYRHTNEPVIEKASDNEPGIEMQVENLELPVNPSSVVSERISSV

5-HT2B [3] = molecular target: T3, 5-HT2B (Homo sapiens, UniProt P41595); assay: cell-based; format: cell-based; parameters: expressed in transfected cells; host or cells: HEK293T; details: for Emax: 1 h, read-out: % efficacy vs 5-HT@ 100%, 5-HT2B; for IC50: HEK293T cells, 1 hour at 37° C., read-out: IC50 nM 5-HT2 Gq Dissociation BRET assay, 5-HT2B
T3 sequence (P41595 whole entry): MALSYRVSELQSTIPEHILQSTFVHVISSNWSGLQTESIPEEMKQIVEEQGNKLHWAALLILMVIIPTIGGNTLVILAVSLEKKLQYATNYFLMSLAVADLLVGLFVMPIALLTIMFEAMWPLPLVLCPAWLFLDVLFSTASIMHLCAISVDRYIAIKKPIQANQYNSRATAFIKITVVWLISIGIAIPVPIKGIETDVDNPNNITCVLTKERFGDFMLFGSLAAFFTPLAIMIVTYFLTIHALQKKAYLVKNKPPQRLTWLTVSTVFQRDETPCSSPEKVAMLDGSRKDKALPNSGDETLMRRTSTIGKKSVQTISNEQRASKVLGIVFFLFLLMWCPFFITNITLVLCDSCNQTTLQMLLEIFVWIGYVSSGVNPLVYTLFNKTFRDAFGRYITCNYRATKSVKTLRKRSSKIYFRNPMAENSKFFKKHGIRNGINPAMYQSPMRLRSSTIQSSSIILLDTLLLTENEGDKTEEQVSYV

5-HT2C [4] = molecular target: T2, 5-HT2C; details: read-out: agonist potency at human 5-HT2C receptor; cited from earlier work
patients = details: cited from earlier work
5-HT3 = molecular target: T4, 5-HT3 (Homo sapiens, UniProt P46098); details: read-out: Ki 5-HT3; cited from earlier work
T4 sequence (P46098 24-478): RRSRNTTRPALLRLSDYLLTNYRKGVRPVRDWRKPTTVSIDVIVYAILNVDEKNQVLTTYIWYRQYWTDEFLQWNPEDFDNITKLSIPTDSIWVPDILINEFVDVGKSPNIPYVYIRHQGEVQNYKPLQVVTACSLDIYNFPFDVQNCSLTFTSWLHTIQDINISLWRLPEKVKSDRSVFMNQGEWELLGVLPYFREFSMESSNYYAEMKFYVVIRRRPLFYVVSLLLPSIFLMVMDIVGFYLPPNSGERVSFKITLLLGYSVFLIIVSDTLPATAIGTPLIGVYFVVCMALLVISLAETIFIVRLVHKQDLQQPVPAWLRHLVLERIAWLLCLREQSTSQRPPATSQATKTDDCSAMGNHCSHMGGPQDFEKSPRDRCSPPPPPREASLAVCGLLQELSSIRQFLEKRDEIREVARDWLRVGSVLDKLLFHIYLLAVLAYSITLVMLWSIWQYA

5-HT2A [5] = molecular target: T1, 5-HT2A; details: relative to serotonin at 100%; cited from earlier work
dopamine receptors = details: cited from earlier work
5-HT2B [6] = molecular target: T3, 5-HT2B; details: relative to serotonin at 100%; cited from earlier work
[7] = HEK293T cells, 1 hour at 37° C., read-out: IC50 nM 5-HT2 Gq Dissociation BRET assay, 5-HT2C

Row | Compound | Emax (5-HT2A [1]) | Emax (5-HT2B [3]) | Emax (5-HT2C [2]) | IC50 (5-HT2A [1]) | IC50 (5-HT2C [2]; [7]) | IC50 (5-HT2B [3]) | also measured
1 | CN(C)CCc1cn(C)c2cccc(O)c12 [Example 1, 3-(2-(dimethylamino)ethyl)-1-methyl-1H-indol-4-ol, reference compound] | – | – | – | – | – | – | EC50 (5-HT2A [1]; found by the inventors, read-out: potency at 5-HT2A receptors): ~86 nM; EC50 (5-HT2C [2]; found by the inventors, read-out: functional potency at human 5-HT2C receptors): ~10 nM
2 | CN(C)CCc1cn(C)c2cccc(O)c12 [Example 1, 3-(2-(dimethylamino)ethyl)-1-methyl-1H-indol-4-ol] | 73% | 40% | 92% | – | – | – | –
3 | CN(C)CCc1cn(CC(F)F)c2cccc(O)c12 [Example 3, 1-(2,2-difluoroethyl)-3-(2-(dimethylamino)ethyl)-1H-indol-4-ol] | 48% | – | 80% | 188 nM | 2.7 nM | – | 5-HT2 Gq Dissociation BRET assay, 5-HT2B, activity class (5-HT2B [3]; Not Active): Not Active
4 | CCCn1cc(CCN(C)C)c2c(O)cccc21 [Example 4, 3-(2-(dimethylamino)ethyl)-1-propyl-1H-indol-4-ol] | 37% | – | 67% | 1150 nM | 3 nM | – | 5-HT2 Gq Dissociation BRET assay, 5-HT2B, activity class (5-HT2B [3]; Not Active): Not Active
5 | CCCCn1cc(CCN(C)C)c2c(O)cccc21 [Example 6, 1-butyl-3-(2-(dimethylamino)ethyl)-1H-indol-4-ol, reference compound] | 18% | – | 48% | 1800 nM | – | – | EC50 (5-HT2C [4]): ~600 nM; 5-HT2 Gq Dissociation BRET assay, 5-HT2B, activity class (5-HT2B [3]): Not Active; IC50 (5-HT2C [2]): 1.61 nM
6 | CN(C)CCc1cn(CC2CC2)c2cccc(O)c12 [Example 8, 1-(cyclopropylmethyl)-3-(2-(dimethylamino)ethyl)-1H-indol-4-ol] | 29% | – | 50% | 28 nM | 0.12 nM | – | 5-HT2 Gq Dissociation BRET assay, 5-HT2B, activity class (5-HT2B [3]; Not Active): Not Active
7 | CN(C)CCc1cn(C2CCC2)c2cccc(O)c12 [Example 9, 1-cyclobutyl-3-(2-(dimethylamino)ethyl)-1H-indol-4-ol] | 53% | – | 44% | 4050 nM | 3 nM | – | 5-HT2 Gq Dissociation BRET assay, 5-HT2B, activity class (5-HT2B [3]; Not Active): Not Active
8 | CN(C)CCc1cn(C2COC2)c2cccc(O)c12 [Example 10, 3-(2-(dimethylamino)ethyl)-1-(oxetan-3-yl)-1H-indol-4-ol] | 50% | – | 60% | 4000 nM | 1070 nM | – | 5-HT2 Gq Dissociation BRET assay, 5-HT2B, activity class (5-HT2B [3]; Not Active): Not Active
9 | CCN(C)CCc1cn(C)c2cccc(O)c12 [Example 12, 3-(2-(ethyl(methyl)amino)ethyl)-1-methyl-1H-indol-4-ol hydrochloride] | 66% | 44% | 84% | 133 nM | 2.8 nM | 83 nM | –
10 | CC(C)N(C)CCc1cn(C)c2cccc(O)c12 [Example 13, 3-(2-(isopropyl(methyl)amino)ethyl)-1-methyl-1H-indol-4-ol hydrochloride] | 85% | 83% | 105% | 112 nM | 63.5 nM | 42.1 nM | –
11 | CC(C)N(CCc1cn(C)c2cccc(O)c12)C(C)C [Example 14, 3-(2-(diisopropylamino)ethyl)-1-methyl-1H-indol-4-ol hydrochloride] | 92% | 68% | 98% | 253 nM | 393 nM | 49.1 nM | –
12 | CN(CCc1cn(C)c2cccc(O)c12)CC1CC1 [Example 16, 3-(2-((cyclopropylmethyl)(methyl)amino)ethyl)-1-methyl-1H-indol-4-ol hydrochloride] | 55% | 19% | 54% | 140 nM | 14.9 nM | 0.245 nM | –
13 | CN(CCc1cn(C)c2cccc(O)c12)CC(F)F [Example 17, 3-(2-((2,2-difluoroethyl)(methyl)amino)ethyl)-1-methyl-1H-indol-4-ol hydrochloride] | 54% | 24% | 66% | 8400 nM | 833 nM | 376 nM | –
14 | CCN(CC)CCc1cn(C)c2cccc(O)c12 [Example 18, 3-(2-(diethylamino)ethyl)-1-methyl-1H-indol-4-ol hydrochloride] | 60% | 56% | 70% | 241 nM | 31 nM | 64 nM | –
15 | Cn1cc(CCNCC2CC2)c2c(O)cccc21 [Example 21, 3-(2-((cyclopropylmethyl)amino)ethyl)-1-methyl-1H-indol-4-ol hydrochloride] | 61% | 46% | 40% | 497 nM | 15 nM | 328 nM | –
16 | Cn1cc(CCNCC(F)F)c2c(O)cccc21 [Example 22, 3-(2-((2,2-difluoroethyl)amino)ethyl)-1-methyl-1H-indol-4-ol hydrochloride] | 78% | 75% | 82% | 4200 nM | 1890 nM | 1420 nM | –
17 | COc1ccccc1CNCCc1cn(C)c2cccc(O)c12 [Example 24, 3-(2-((2-methoxybenzyl)amino)ethyl)-1-methyl-1H-indol-4-ol hydrochloride] | 93% | 56% | 115% | 10 nM | 1.6 nM | 8.3 nM | –
18 | COc1ccccc1CN(C)CCc1cn(C)c2cccc(O)c12 [Example 25, 3-(2-((2-methoxybenzyl)(methyl)amino)ethyl)-1-methyl-1H-indol-4-ol hydrochloride] | 39% | 14% | 70% | 770 nM | 2.4 nM | 4000 nM | –
19 | C[C@H]1CNCCc2ccc(Cl)cc21 [Locaserin] | – | – | – | – | – | – | risk of cardiac valvulopathy (patients): no increased risk of cardiac valvulopathy
20 | CN(C)CCc1c[nH]c2cccc(O)c12 [Psilocin, psilocin] | – | – | – | – | – | – | Ki (5-HT3): > 10000 nM; Efficacy (in parentheses), 5-HT2A (5-HT2A [5]): 43%; effect on dopamine receptors (dopamine receptors): no significant effect on dopamine receptors; Efficacy (in parentheses), 5-HT2B (5-HT2B [6]): 45%; % efficacy vs 5-HT@ 100%, 5-HT2B (5-HT2B [3]): 1.07 nM (63%)
